These results are taken from the SangsterLogP compilation.

Structures are written as SMILES.

The data set can be described thus: from Nakagawa, S.; Okajima, N.; Kitahaba, T.; Nishimura, K.; Fujita, T.; Nakajima, M. (1982). Quantitative structure-activity studies of substituted benzylchrysanthemates. I. Correlation between ….

In general, logP refers to the decadic logarithm of the partition coefficient of the neutral form, usually between octanol and water. Low values mean lower lipophilicity, high ones higher lipophilicity. `CC(=O)OCN1C(=O)C2=C(CCCC2)C1=O` displayed a logP of 1.15.

In the case of `C=CCC1=C(C)[C@H](OC(=O)C2C(C=C(C)C)C2(C)C)CC1=O` (stereo partly drawn), the log partition coefficient (logP) stood at 4.78.

The compound `CC(=O)OCc1ccc(Cl)cc1` had a logP of 2.59.

`COc1cccc(COC(C)=O)c1` gave a log partition coefficient (logP) of 2.02.

`CC(=O)OCc1ccc([N+](=O)[O-])cc1` registered a lipophilicity (logP) of 1.73.

For the compound `COC(=O)C1C(C=C(Cl)Cl)C1(C)C` (stereo not drawn), the logP amounted to 3.63.

On to `COC(=O)C1C(C=C2CCSC2=O)C1(C)C` (stereo not drawn), for which the logP stood at 2.33.

In turn, `COC(=O)[C@@H]1[C@@H](C=C(C)C)C1(C)C` registered a logP of 3.76.

`CC(=O)OCc1ccc(C)cc1` displayed a logP of 2.44.

Compound `CC(C)=C[C@@H]1[C@@H](C(=O)OCc2ccccc2[N+](=O)[O-])C1(C)C` showed a lipophilicity (logP) of 5.2.

`CC(=O)OCc1coc(Cc2ccccc2)c1` came in with a log partition coefficient (logP) of 3.24.

Consider `CC(C)=C[C@@H]1[C@@H](C(=O)OCc2ccc(C#N)cc2)C1(C)C`, for which the logP was determined as 4.91.

With `CC(C)=CC1C(C(=O)OCc2ccccc2)C1(C)C` (stereo not drawn), the log partition coefficient (logP) was 5.49.
